Where two headings read alike, the source gives them in different places.
How the values were obtained:
PI3Kδ = PI3Kδ (Homo sapiens (Human), UniProt O00329); assay: Inhibition of PI3Kδ efficacy assay (ADP-Glo kinase assay); assay type: biochemical; conditions: read-out: PI3Kδ inhibitory activity (IC50)
Experimental: Test Example 2: Inhibition of PI3Kδ Efficacy assay The ADP-Glo™ kinase assay was used to assess the inhibition of PI3Kδ with our compounds. The utilized proteins and assay reagents were obtained from the ADP-Glo™ Kinase Assay Kit (Promega). Initially, a 2 mM stock solution of the test compound (dissolved in DMSO) was serially diluted in five-fold concentrations using DMSO to obtain eight working solutions 1 (200×) Subsequently, each of the eight working solutions 1 was further diluted in a 20-fold gradient by adding 5 μL into 95 μL of ddH2O, resulting in eight working solutions 2 (10×). […] Subsequently, 2 μL of 2.5×PI and ATP solution mixture were added to each well, mixed, and incubated at RT for 60 minutes. Then, 5 μL of ADP-Glo (containing 10 mM MgCl2) reagent was added to each well, mixed, and incubated at RT for 40 minutes. Finally, 10 μL of the Kinase Detection Reagent was added to each well, mixed, and incubated at RT for 40 minutes. Luminescence values were recorded using a multi-mode microplate reader with luminescence channel settings, and the inhibitory rate was calculated using the following formula: [formula] Data were analyzed using GraphPad Prism with log(inhibitor) vs. response—Variable Slope(four parameters) fitting calculations for IC50 values.

[1] = system: NCI-H358 cells (KRAS G12C mutant); assay: NCI-H358 cell proliferation inhibition (CellTiter-Glo); assay type: cell-based; conditions: Homo sapiens, NCI-H358, 72 h; H358 cells (G12C mutation), 3 days, Table 6; read-out: NCI-H358 (IC50)
Experimental: The CellTiter-Glo®, assay was used to detect the number of viable cells, in order to evaluate the anti-proliferation efficacy of compounds. […] The compounds were serially diluted 5-fold in DMSO to obtain 8 concentrations, and then further diluted with RPMI-640 (10% FBS) cell culture medium to obtain the working solutions (5′), 20 μL of each working solution was added to the cell culture supernatant in each well, and the plate was further incubated for 3 days at 37° C. with 5% CO2. The plate was then equilibrated with CellTiter-Glo® reagent at room temperature (25° C.) for 10-30 minutes. After aspirating 50 μL of the medium, 50 μL of CellTiter-Glo® reagent was added. The cells were thoroughly mixed with the CellTiter-Glo® reagent using a microplate shaker for 2 minutes, and then incubated at room temperature for 10 minutes. The 96-well plate was placed in a multi-mode microplate reader to record the luminescence values (RLU). The inhibition rate was calculated through the following equation: [formula] Data were analyzed using GraphPad Prism for IC50 values (Note: The negative control refers to the group without inhibitor).

PI3Kα = PI3Kα (Homo sapiens (Human), UniProt P42336); assay: Inhibition of PI3Kα efficacy assay (ADP-Glo kinase assay); assay type: biochemical; conditions: read-out: PI3Kα inhibitory activity (IC50)
PI3Kα, sequence (P42336 whole entry): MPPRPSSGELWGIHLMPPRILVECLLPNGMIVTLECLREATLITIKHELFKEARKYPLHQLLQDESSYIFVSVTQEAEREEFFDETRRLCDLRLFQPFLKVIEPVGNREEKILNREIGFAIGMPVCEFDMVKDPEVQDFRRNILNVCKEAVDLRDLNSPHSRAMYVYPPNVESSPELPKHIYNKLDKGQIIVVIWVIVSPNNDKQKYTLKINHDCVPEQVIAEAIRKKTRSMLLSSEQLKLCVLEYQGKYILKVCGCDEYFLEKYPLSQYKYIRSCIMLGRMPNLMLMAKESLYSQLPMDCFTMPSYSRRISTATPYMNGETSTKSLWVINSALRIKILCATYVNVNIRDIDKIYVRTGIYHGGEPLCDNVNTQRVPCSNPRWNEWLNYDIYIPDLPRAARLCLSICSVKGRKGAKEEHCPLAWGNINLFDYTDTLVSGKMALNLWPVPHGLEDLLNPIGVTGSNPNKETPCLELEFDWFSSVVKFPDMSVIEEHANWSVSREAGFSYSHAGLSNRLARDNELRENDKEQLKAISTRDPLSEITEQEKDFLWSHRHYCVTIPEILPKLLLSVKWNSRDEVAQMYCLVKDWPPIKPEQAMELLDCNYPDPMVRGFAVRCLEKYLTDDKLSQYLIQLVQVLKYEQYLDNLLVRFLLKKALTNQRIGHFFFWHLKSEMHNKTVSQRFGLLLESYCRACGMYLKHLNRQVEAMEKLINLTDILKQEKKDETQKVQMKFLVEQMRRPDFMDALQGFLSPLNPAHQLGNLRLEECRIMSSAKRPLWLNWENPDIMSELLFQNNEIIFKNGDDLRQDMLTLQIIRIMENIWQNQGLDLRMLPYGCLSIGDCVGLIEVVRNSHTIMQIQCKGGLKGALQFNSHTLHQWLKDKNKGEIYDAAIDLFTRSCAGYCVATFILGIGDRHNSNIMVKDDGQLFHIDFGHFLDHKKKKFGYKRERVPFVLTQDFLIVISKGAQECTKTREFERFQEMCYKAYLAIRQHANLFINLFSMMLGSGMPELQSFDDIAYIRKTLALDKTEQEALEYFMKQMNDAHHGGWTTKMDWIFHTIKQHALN
PI3Kα, sequence (P27986 whole entry partner): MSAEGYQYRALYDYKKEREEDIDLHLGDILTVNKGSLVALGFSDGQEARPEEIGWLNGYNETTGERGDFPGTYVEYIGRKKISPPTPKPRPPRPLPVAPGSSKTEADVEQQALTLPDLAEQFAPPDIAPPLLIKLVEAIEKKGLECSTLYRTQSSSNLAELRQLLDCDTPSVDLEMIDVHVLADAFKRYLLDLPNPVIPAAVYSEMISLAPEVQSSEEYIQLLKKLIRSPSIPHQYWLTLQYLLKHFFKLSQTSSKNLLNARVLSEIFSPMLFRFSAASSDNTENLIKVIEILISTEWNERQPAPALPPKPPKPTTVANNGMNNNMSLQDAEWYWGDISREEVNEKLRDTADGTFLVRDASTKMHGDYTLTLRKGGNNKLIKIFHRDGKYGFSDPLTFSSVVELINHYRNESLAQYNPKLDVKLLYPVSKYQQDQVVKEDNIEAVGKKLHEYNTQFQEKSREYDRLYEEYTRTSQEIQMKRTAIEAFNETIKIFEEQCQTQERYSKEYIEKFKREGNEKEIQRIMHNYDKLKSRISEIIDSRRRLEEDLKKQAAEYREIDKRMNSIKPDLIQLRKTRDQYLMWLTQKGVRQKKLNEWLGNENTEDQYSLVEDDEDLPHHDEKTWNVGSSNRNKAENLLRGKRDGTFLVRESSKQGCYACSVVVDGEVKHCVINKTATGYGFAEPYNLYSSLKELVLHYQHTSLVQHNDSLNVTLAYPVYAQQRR
Experimental: Inhibition of PI3Kα Efficacy assay The ADP-Glo™ kinase assay was used to assess the inhibition of PI3Kα with our compounds. The utilized proteins and assay reagents were obtained from the ADP-Glo™ Kinase Assay Kit (Promega). Initially, a 2 mM stock solution of the test compound (dissolved in DMSO) was serially diluted in five-fold concentrations using DMSO to obtain eight working solutions 1 (200′). […] Subsequently, 2 μL of 2.5×PI and ATP solution mixture were added to each well, mixed, and incubated at RT for 60 minutes. Then, 5 μL of ADP-Glo (containing 10 mM MgCl2) reagent was added to each well, mixed, and incubated at RT for 40 minutes. Finally, 10 μL of the Kinase Detection Reagent was added to each well, mixed, and incubated at RT for 40 minutes. […] Data were analyzed using GraphPad Prism with log(inhibitor) vs. response—Variable Slope(four parameters) fitting calculations for […]. (Note: The negative control refers to the group without inhibitor, and the blank control refers to the group without enzyme.) The data were presented in Tables 1 to 4.

PI3Kδ, sequence (O00329 whole entry): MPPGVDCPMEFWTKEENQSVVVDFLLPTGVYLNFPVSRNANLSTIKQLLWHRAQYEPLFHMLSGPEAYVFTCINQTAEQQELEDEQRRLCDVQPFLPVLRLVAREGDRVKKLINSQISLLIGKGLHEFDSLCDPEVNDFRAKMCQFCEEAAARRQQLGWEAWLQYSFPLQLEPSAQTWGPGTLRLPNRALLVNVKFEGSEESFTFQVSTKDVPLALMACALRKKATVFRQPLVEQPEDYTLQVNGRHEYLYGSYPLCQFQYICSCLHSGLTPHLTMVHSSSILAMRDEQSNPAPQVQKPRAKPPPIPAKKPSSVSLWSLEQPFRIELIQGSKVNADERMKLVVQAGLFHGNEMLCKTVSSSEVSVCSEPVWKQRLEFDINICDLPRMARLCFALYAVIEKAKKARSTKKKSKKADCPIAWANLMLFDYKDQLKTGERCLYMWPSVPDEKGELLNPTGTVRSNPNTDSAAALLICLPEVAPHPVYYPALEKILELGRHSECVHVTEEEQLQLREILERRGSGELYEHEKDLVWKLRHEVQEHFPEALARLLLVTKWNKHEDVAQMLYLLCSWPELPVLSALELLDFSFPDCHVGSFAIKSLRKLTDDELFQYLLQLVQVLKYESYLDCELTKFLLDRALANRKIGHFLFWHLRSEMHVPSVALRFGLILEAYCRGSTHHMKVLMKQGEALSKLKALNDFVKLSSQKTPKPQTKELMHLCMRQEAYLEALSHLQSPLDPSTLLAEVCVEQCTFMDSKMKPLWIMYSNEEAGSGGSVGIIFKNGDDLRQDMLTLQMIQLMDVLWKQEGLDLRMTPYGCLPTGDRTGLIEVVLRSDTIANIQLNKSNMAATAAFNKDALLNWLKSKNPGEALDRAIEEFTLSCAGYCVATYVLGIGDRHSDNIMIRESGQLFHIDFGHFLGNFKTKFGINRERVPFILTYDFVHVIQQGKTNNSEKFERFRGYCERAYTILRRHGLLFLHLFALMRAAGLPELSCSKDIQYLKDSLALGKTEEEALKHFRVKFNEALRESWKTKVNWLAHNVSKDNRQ
PI3Kδ, sequence (P27986 whole entry partner): as the sequence (P27986 whole entry partner) above

Row | IC50 (PI3Kδ; Table 1) | IC50 [1] | IC50 (PI3Kα; Table 1) | IC50 (PI3Kδ; Table 2) | IC50 (PI3Kα; Table 2) | Compound | also measured
1 | 10.1 nM | 4290 nM | 7.6 nM |  |  | C=CC(=O)N1CCN(c2ncnc3c2CN(c2cnc(OC)c(NS(=O)(=O)c4ccc(F)cc4F)c2)CC3)CC1 [Example 41, N-(5-(4-(4-acryloylpiperazin-1-yl)-7,8-dihydropyrido[4,3-d]pyrimidin-6 (5H)-yl)-2-methoxypyridin-3-yl)-2,4-difluorobenzenesulfonamide] | 
2 | 127 nM | 288 nM | 26.9 nM |  |  | C=CC(=O)N1CCN(c2ncnc3ccc(-c4cnc(OC)c(NS(=O)(=O)C5CCCCC5)c4)cc23)CC1 [Example 25, N-(5-(4-(4-acryloylpiperazin-1-yl)quinazolin-6-yl)-2-methoxypyridin-3-yl)cyclohexanesulfonamide] | 
3 | 18 nM |  |  |  |  | COc1ncc(-c2nc(N3CCOCC3)nc3c(CN4CCC(C(C)(C)O)CC4)cc(F)cc23)cc1NS(C)(=O)=O [Linperlisib, reference compound] | 
4 |  | 13.5 nM |  | 14.8 nM | 13.8 nM | C=C(OC)C(=O)N1CCN(c2ncnc3ccc(-c4cnc(OC)c(NS(=O)(=O)c5ccc(F)cc5F)c4)cc23)CC1 [Example 66, 2,4-difluoro-N-(2-methoxy-5-(4-(4-(2-methoxy-acryloyl)piperazin-1-yl)quinazolin-6-yl)pyridin-3-yl) benzene-sulfonamide] | 
5 | 12.5 nM | 60.1 nM | 1.2 nM |  |  | C=CC(=O)N1CC2(CCN(c3ncnc4ccc(-c5cnc(OC)c(NS(=O)(=O)c6ccc(F)cc6F)c5)cc34)CC2)C1 [Example 18, N-(5-(4-(2-acryloyl-2,7-diazaspiro[3.5]nonan-7-yl)quinazolin-6-yl)-2-methoxypyridin-3-yl)-2,4-difluorobenzenesulfonamide] | 
6 | 9.05 nM | 350 nM | 0.56 nM |  |  | C=C(F)C(=O)N1CCN(c2ncnc3ccc(-c4cnc(OC)c(NS(=O)(=O)c5ccc(F)cc5F)c4)cc23)[C@@H](C)C1 [Example 9, (S)-2,4-difluoro-N-(5-(4-(4-(2-fluoroacryloyl)-2-methylpiperazin-1-yl)quinazolin-6-yl)-2-methoxypyridin-3-yl)benzenesulfonamide] | 
7 | 28.5 nM | 35.2 nM | 0.26 nM |  |  | COc1ncc(-c2ccc3ncnc(N4CCN(C(=O)/C=C/CF)CC4)c3c2)cc1NS(=O)(=O)c1ccc(F)cc1F [Example 16, (E)-2,4-difluoro-N-(5-(4-(4-(4-fluorobut-2-enoyl)piperazin-1-yl)quinazolin-6-yl)-2-methoxypyridin-3-yl)benzenesulfonamide] | 
8 | 1840 nM |  | 430 nM |  |  | C=CC(=O)N1CCN(c2nc(N)nc3ccc(-c4cnc(OC)c(NS(=O)(=O)c5ccc(F)cc5F)c4)cc23)CC1 [Example 30, N-(5-(4-(4-acryloylpiperazin-1-yl)-2-aminoquinazolin-6-yl)-2-methoxypyridin-3-yl)-2,4-difluorobenzenesulfonamide] | 
9 |  |  |  | 75.6 nM | 89.9 nM | C=CC(=O)N1CCN(c2ncnc3ccc(-c4cnc(OC)c(N(C)S(=O)(=O)c5c(F)cccc5F)c4)cc23)CC1 [Example 82, N-(5-(4-(4-acryloylpiperazin-1-yl)quinazolin-6-yl)-2-methoxypyridin-3-yl)-2,6-difluoro-N-methylbenzenesulfonamide] | 
10 | 49.7 nM |  | 1.8 nM |  |  | CC(=O)/C=C/C(=O)N1CCN(c2ncnc3ccc(-c4cncc(NS(=O)(=O)c5ccc(F)cc5F)c4)cc23)CC1 [Example 28, (E)-2,4-difluoro-N-(5-(4-(4-(4-oxopent-2-enoyl)piperazin-1-yl)quinazolin-6-yl)pyridin-3-yl)benzenesulfonamide] | 
11 |  |  |  | 268 nM | 161 nM | C=C(F)C(=O)N1CCN(c2ncnc3ccc(-c4cnc(OC5CCCC5)c(NS(=O)(=O)c5ccc(F)cc5F)c4)cc23)CC1 [Example 108, N-(2-(cyclopentyloxy)-5-(4-(4-(2-fluoroacryloyl)piperazin-1-yl)quinazolin-6-yl)pyridin-3-yl)-2,4-difluorobenzenesulfonamide] | 
12 |  |  |  | 38.5 nM | 8.6 nM | CNc1ncc(-c2ccc3ncnc(N4CCN(C(=O)/C=C/C(C)=O)CC4)c3c2)cc1NS(=O)(=O)c1ccc(F)cc1F [Example 105, (E)-2,4-difluoro-N-(2-(methylamino)-5-(4-(4-(4-oxopent-2-enoyl)piperazin-1-yl)quinazolin-6-yl)pyridin-3-yl)benzenesulfonamide] | 
13 | 20.1 nM |  | 1.3 nM |  |  | C=CC(=O)N1CCN(c2ncnc3ccc(-c4cnc(OC)c(NS(=O)(=O)c5ccc(Cl)s5)c4)cc23)CC1 [Example 37, N-(5-(4-(4-acryloylpiperazin-1-yl)quinazolin-6-yl)-2-methoxypyridin-3-yl)-5-chlorothiophene-2-sulfonamide] | 
14 |  |  |  | 117 nM | 117 nM | C=CC(=O)N1CCN(c2ncnc3ccc(-c4cnc(OC5CCCC5)c(NS(=O)(=O)c5ccc(F)cc5F)c4)cc23)CC1 [Example 106, N-(5-(4-(4-acryloylpiperazin-1-yl)quinazolin-6-yl)-2-(cyclopentyloxy)pyridin-3-yl)-2,4-difluorobenzenesulfonamide] | 
15 |  |  |  | 142 nM |  | CC(=O)/C=C/C(=O)N1CCN(c2ncnc3ccc(-c4cnc(O)c(NS(=O)(=O)c5ccc(F)cc5F)c4)cc23)CC1 [Example 129, (E)-2,4-difluoro-N-(2-hydroxy-5-(4-(4-(4-oxopent-2-enoyl)piperazin-1-yl)quinazolin-6-yl)pyridin-3-yl)benzenesulfonamide] | 
16 | 336 nM |  | 149 nM |  |  | C=CC(=O)N1CCN(c2nc(C#N)nc3ccc(-c4cnc(OC)c(NS(=O)(=O)c5ccc(F)cc5F)c4)cc23)CC1 [Example 31, N-(5-(4-(4-acryloylpiperazin-1-yl)-2-cyanoquinazolin-6-yl)-2-methoxypyridin-3-yl)-2,4-difluorobenzenesulfonamide] | 
17 |  |  |  | 8 nM |  | CCOc1c([C@H](C)n2nc(C)c3c(N)ncnc32)cc(Cl)c(F)c1[C@@H]1CNC(=O)C1 [Parsaclisib, reference compound] | IC50 (PI3Kδ; Table 3): 6 nM; IC50 (PI3Kδ; Table 4): 4 nM
18 | > 5000 nM |  | 2260 nM |  |  | C=CC(=O)N1CCN(c2nc(O)nc3ccc(-c4cnc(OC)c(NS(=O)(=O)c5ccc(F)cc5F)c4)cc23)CC1 [Example 32, N-(5-(4-(4-acryloylpiperazin-1-yl)-2-hydroxyquinazolin-6-yl)-2-methoxypyridin-3-yl)-2,4-difluorobenzenesulfonamide] | 
19 | 27.3 nM |  | 1.8 nM |  |  | C=CC(=O)N1CCN(c2ncnc3ccc(-c4cncc(NS(=O)(=O)c5ccc(F)cc5F)c4)cc23)CC1 [Example 27, N-(5-(4-(4-acryloylpiperazin-1-yl)quinazolin-6-yl)pyridin-3-yl)-2,4-difluorobenzenesulfonamide] | 

Row | Compound | IC50 (PI3Kδ; Table 1) | IC50 [1] | IC50 (PI3Kα; Table 1) | IC50 (PI3Kδ; Table 2) | IC50 (PI3Kα; Table 2) | also measured
20 | COc1ncc(-c2ccc3ncnc(N4CCN(C(=O)/C=C/S(C)(=O)=O)CC4)c3c2)cc1NS(=O)(=O)c1ccc(F)cc1F [Example 75, (E)-2,4-difluoro-N-(2-methoxy-5-(4-(4-(3-(methylsulfonyl)acryloyl)piperazin-1-yl)quinazolin-6-yl)pyridin-3-yl)benzenesulfonamide] |  | 285 nM |  | 31.2 nM | 0.78 nM | 
21 | C=CC(=O)N1CCN(c2ncnc3ccc(-c4cnc(OC)c(NCc5ccc(F)cc5F)c4)cc23)CC1 [Example 126, 1-(4-(6-(5-((2,4-difluorobenzyl)amino)-6-methoxypyridin-3-yl)quinazolin-4-yl)piperazin-1-yl)prop-2-en-1-one] |  |  |  | 52.7 nM | 131 nM | 
